From paper PMC8261786 (Chemical Science, 2021)

How the values were obtained:
[1] = SDS-PAGE; assay type: physicochemical; conditions: 25 μM amyloid peptide alone; for size of monomers and oligomers (SDS-PAGE): 1–2 h; for size of large aggregates (SDS-PAGE): 24 h
[2] = system: RIN-5fm cells; experiment: MTT cell viability, RIN-5fm; assay type: cell-based, rat; conditions: 25 μM hIAPP, 24 h, n = 3
[3] = system: RIN-5fm cells; experiment: LDH membrane leakage, RIN-5fm; assay type: cell-based, rat; conditions: 25 μM hIAPP, 24 h, n = 3
[4] = system: S. epidermidis; experiment: Bacterial growth assay, S. epidermidis; assay type: cell-based, Staphylococcus epidermidis (ATCC 14990); conditions: amyloid peptides 25 μM
[5] = system: SH-SY5Y cells; experiment: MTT cell viability, SH-SY5Y; assay type: cell-based, human; conditions: 25 μM amyloid, 24 h, n = 3
[6] = system: SH-SY5Y cells; experiment: LDH membrane leakage, SH-SY5Y; assay type: cell-based, human; conditions: 25 μM amyloid, 24 h, n = 3
[7] = system: E. coli, P. aeruginosa, S. aureus and S. epidermidis; experiment: Bacterial growth assay, four strains together; assay type: cell-based; conditions: hCT 25 μM, growth profiles

Row | size of monomers and oligomers (SDS-PAGE) [1] | size of large aggregates (SDS-PAGE) [1] [kDa] | membrane leakage (LDH activity), amyloid alone [3] [%] | membrane leakage (LDH activity), amyloid alone [6] [%] | Structure (SMILES) | cell viability, amyloid alone [2] [%] | susceptibility of S. epidermidis [4] | cell viability, amyloid alone [5] [%] | growth inhibition [7]
1 | 5–15 kDa | > 25 | 36 | – | CC[C@H](C)[C@H](NC(=O)[C@H](C)NC(=O)CNC(=O)[C@H](Cc1ccccc1)NC(=O)[C@H](CC(N)=O)NC(=O)[C@H](CC(N)=O)NC(=O)[C@H](CO)NC(=O)[C@H](CO)NC(=O)[C@H](Cc1c[nH]cn1)NC(=O)[C@@H](NC(=O)[C@H](CC(C)C)NC(=O)[C@H](Cc1ccccc1)NC(=O)[C@H](CC(N)=O)NC(=O)[C@H](C)NC(=O)[C@H](CC(C)C)NC(=O)[C@H](CCCNC(=N)N)NC(=O)[C@H](CCC(N)=O)NC(=O)[C@@H](NC(=O)[C@H](C)NC(=O)[C@@H]1CSSC[C@H](NC(=O)[C@@H](N)CCCCN)C(=O)N[C@@H](CC(N)=O)C(=O)N[C@@H]([C@@H](C)O)C(=O)N[C@@H](C)C(=O)N[C@@H]([C@@H](C)O)C(=O)N1)[C@@H](C)O)C(C)C)C(=O)N[C@@H](CC(C)C)C(=O)N[C@@H](CO)C(=O)N[C@@H](CO)C(=O)N[C@H](C(=O)N[C@@H](CC(N)=O)C(=O)N[C@H](C(=O)NCC(=O)N[C@@H](CO)C(=O)N[C@@H](CC(N)=O)C(=O)N[C@H](C(=O)N[C@@H](Cc1ccc(O)cc1)C(N)=O)[C@@H](C)O)C(C)C)[C@@H](C)O [hIAPP, human islet amyloid polypeptide 1–37] | 58 | not susceptible | – | –
2 | 5–15 kDa | > 25 | – | 26 | CC[C@H](C)[C@H](NC(=O)[C@H](C)NC(=O)[C@@H](NC(=O)[C@H](CCC(N)=O)NC(=O)[C@@H]1CCCN1C(=O)[C@H](Cc1ccccc1)NC(=O)[C@@H](NC(=O)[C@H](Cc1c[nH]cn1)NC(=O)[C@H](Cc1ccccc1)NC(=O)[C@H](CCCCN)NC(=O)[C@H](CC(N)=O)NC(=O)[C@H](Cc1ccccc1)NC(=O)[C@H](CC(=O)O)NC(=O)[C@H](CCC(N)=O)NC(=O)[C@@H](NC(=O)[C@H](Cc1ccc(O)cc1)NC(=O)[C@@H](NC(=O)CNC(=O)[C@H](CC(C)C)NC(=O)[C@H](CCSC)NC(=O)[C@@H]1CSSC[C@H](N)C(=O)NCC(=O)N[C@@H](CC(N)=O)C(=O)N[C@@H](CC(C)C)C(=O)N[C@@H](CO)C(=O)N[C@@H]([C@@H](C)O)C(=O)N1)[C@@H](C)O)[C@@H](C)O)[C@@H](C)O)[C@@H](C)O)C(=O)NCC(=O)N[C@H](C(=O)NCC(=O)N[C@@H](C)C(=O)N1CCC[C@H]1C(N)=O)C(C)C [hCT, human calcitonin 1–32] | – | not susceptible | 69 | only inhibited the growth of P. aeruginosa
